Results reported in ChEMBL document CHEMBL5316331, “Modulating Cytotoxicity with Lego-like Chemistry: Upgrading Mitochondriotropic Antioxidants with Prototypical Cationic Carrier Bricks” (J Med Chem, 2023).
The source made the active and inactive calls. The rule behind the calls is not given here.

Key:
[1] = test system: SH-SY5Y; test: Effect on cell death pathway in human SH-SY5Y cells assessed as increase in early apoptotic cells at 100 uM incubated for 24 hrs by Annexin V-FITC/PI staining based microscopy; format: functional
[2] = test system: SH-SY5Y; test: Effect on cell morphology in human SH-SY5Y cells assessed as reduction in cell body at 50 uM incubated for 24 hrs by Phase-contrast microscopy; format: functional, cell-based
[3] = test system: SH-SY5Y; test: Effect on cell death pathway in human SH-SY5Y cells assessed as increase in necrotic cells at 100 uM incubated for 24 hrs by Annexin V-FITC/PI staining based microscopy; format: functional
[4] = test system: SH-SY5Y; test: Effect on cell death pathway in human SH-SY5Y cells assessed as increase in early apoptotic cells at 50 uM incubated for 24 hrs by Annexin V-FITC/PI staining based microscopy; format: functional
[5] = test system: SH-SY5Y; test: Effect on cell morphology in human SH-SY5Y cells assessed as reduction in neurite at 50 uM incubated for 24 hrs by Phase-contrast microscopy; format: functional, cell-based
[6] = test system: SH-SY5Y; test: Effect on cell death pathway in human SH-SY5Y cells assessed as increase in late apoptotic cells at 100 uM incubated for 24 hrs by Annexin V-FITC/PI staining based microscopy; format: functional
[7] = test system: SH-SY5Y; test: Effect on cell morphology in human SH-SY5Y cells assessed as reduction in cell body at 100 uM incubated for 24 hrs by Phase-contrast microscopy; format: functional, cell-based
[8] = test system: SH-SY5Y; test: Effect on cell mitochondrial mass in human SH-SY5Y cells assessed as reduction on mitochondrial mass at 50 uM incubated for 24 hrs by mito-tracker green dye based flow cytometry; format: functional; set-up: scale not given: the % may be the effect or the level left
[9] = test system: SH-SY5Y; test: Effect on cell death pathway in human SH-SY5Y cells assessed as increase in late apoptotic cells at 50 uM incubated for 24 hrs by Annexin V-FITC/PI staining based microscopy; format: functional
[10] = test system: SH-SY5Y; test: Effect on cell morphology in human SH-SY5Y cells assessed as reduction in neurite at 100 uM incubated for 24 hrs by Phase-contrast microscopy; format: functional, cell-based
[11] = test system: SH-SY5Y; test: Effect on cell death pathway in human SH-SY5Y cells assessed as increase in necrotic cells at 50 uM incubated for 24 hrs by Annexin V-FITC/PI staining based microscopy; format: functional
[12] = Cytotoxicity against human SH-SY5Y cells assessed as cell viability incubated for 24 hrs; format: toxicity, cell-based; conditions: read-out: Activity
[13] = test system: SH-SY5Y; test: Antioxidant activity against human SH-SY5Y cells assessed as increase in ATP production-linked respiration at 10 uM incubated for 24 hrs followed by addition of oligomycin/FCCP/antimycin A /rotenone by Cell Mito stress assay based seahorse XF96 flux analyzer; format: functional
[14] = test system: SH-SY5Y; test: Antioxidant activity against human SH-SY5Y cells assessed as increase in spare respiratory capacity at 10 uM incubated for 24 hrs followed by addition of oligomycin/FCCP/antimycin A /rotenone by Cell Mito stress assay based seahorse XF96 flux analyzer; format: functional
[15] = test system: SH-SY5Y; test: Neuroprotective activity against H2O2-induced human SH-SY5Y cells assessed as increase in cell viability at 10 uM preincubated for 30 mins followed by H2O2 addition and measured after 24 hrs by SRB assay; format: functional, cell-based; conditions: time 24.5 hrs
[16] = test system: SH-SY5Y; test: Antioxidant activity against human SH-SY5Y cells assessed as increase in basal respiration at 10 uM incubated for 24 hrs followed by addition of oligomycin/FCCP/antimycin A /rotenone by Cell Mito stress assay based seahorse XF96 flux analyzer; format: functional
[17] = test system: SH-SY5Y; test: Antioxidant activity against human SH-SY5Y cells assessed as increase in maximal respiration at 50 uM incubated for 24 hrs followed by addition of oligomycin/FCCP/antimycin A /rotenone by Cell Mito stress assay based seahorse XF96 flux analyzer; format: functional
[18] = test system: SH-SY5Y; test: Cytotoxicity against human SH-SY5Y cells incubated for 48 hrs; format: toxicity, cell-based
[19] = Cytotoxicity against human HepG2 cells assessed as cell viability incubated for 24 hrs; format: toxicity, cell-based; conditions: read-out: Activity
[20] = Drug uptake in C57BL/6J mouse liver mitochondria at 5 uM in presence of rotenone by UPLC analysis; format: ADME
[21] = test system: SH-SY5Y; test: Antioxidant activity against human SH-SY5Y cells assessed as increase in basal OCR at 10 uM incubated for 24 hrs followed by addition of oligomycin/FCCP/antimycin A /rotenone by Cell Mito stress assay based seahorse XF96 flux analyzer; format: functional
[22] = test system: SH-SY5Y; test: Neuroprotective activity against H2O2-induced human SH-SY5Y cells assessed as increase in cell viability at 50 uM preincubated for 30 mins followed by H2O2 addition and measured after 24 hrs by SRB assay; format: functional, cell-based; conditions: time 24.5 hrs
[23] = test system: SH-SY5Y; test: Cytotoxicity against human SH-SY5Y cells assessed as increase in cell viability at 10 to 100 uM incubated for 24 hrs; format: toxicity, cell-based; conditions: dose 10-100 µM
[24] = test system: SH-SY5Y; test: Antioxidant activity against human SH-SY5Y cells assessed as increase in ATP production-linked respiration at 50 uM incubated for 24 hrs followed by addition of oligomycin/FCCP/antimycin A /rotenone by Cell Mito stress assay based seahorse XF96 flux analyzer; format: functional
[25] = test system: SH-SY5Y; test: Antioxidant activity against human SH-SY5Y cells assessed as increase in basal respiration at 50 uM incubated for 24 hrs followed by addition of oligomycin/FCCP/antimycin A /rotenone by Cell Mito stress assay based seahorse XF96 flux analyzer; format: functional
[26] = test system: HepG2; test: Cytotoxicity against human HepG2 cells assessed as increase in cell viability at 10 to 100 uM incubated for 24 hrs; format: toxicity, cell-based; conditions: hepg2, 24 h, dose 10-100 µM
[27] = Drug uptake in C57BL/6J mouse liver mitochondria at 5 uM in presence of succinate by UPLC analysis; format: ADME
[28] = test system: SH-SY5Y; test: Antioxidant activity against human SH-SY5Y cells assessed as increase in spare respiratory capacity at 50 uM incubated for 24 hrs followed by addition of oligomycin/FCCP/antimycin A /rotenone by Cell Mito stress assay based seahorse XF96 flux analyzer; format: functional
[29] = test system: SH-SY5Y; test: Antioxidant activity against human SH-SY5Y cells assessed as increase in basal ECAR at 10 uM incubated for 24 hrs followed by addition of oligomycin/FCCP/antimycin A /rotenone by Cell Mito stress assay based seahorse XF96 flux analyzer; format: functional
[30] = Drug uptake in C57BL/6J mouse liver mitochondria at 5 uM in presence of FCCP by UPLC analysis; format: ADME
[31] = test system: SH-SY5Y; test: Antioxidant activity against human SH-SY5Y cells assessed as increase in maximal respiration at 10 uM incubated for 24 hrs followed by addition of oligomycin/FCCP/antimycin A /rotenone by Cell Mito stress assay based seahorse XF96 flux analyzer; format: functional

N#CC(C#N)=NNc1cccc(Cl)c1 [CARBONYL CYANIDE M-CHLOROPHENYLHYDRAZONE]
Activity [1]: Active
Activity [2]: Active
Activity [3]: Active
Activity [4]: Active
Activity [5]: Active
Activity [6]: Active
Activity [7]: Active
Activity [8]: 77.4%
Activity [9]: Active
Activity [10]: Active
Activity [11]: Active

CS(=O)(=O)[O-].Cc1cc[n+](CCCCCCCCCCNC(=O)/C=C/c2ccc(O)c(O)c2)cc1
viability at 24 h [12]: ≥ 85%
Activity [13]: Active
Activity [14]: Active
Activity [15]: inactive
Activity [16]: Active
Activity [17]: Active
Activity [18]: Non-Toxic
viability at 24 h [19]: ≥ 85%
Drug uptake [20]: Not Active
Activity [21]: Active
Activity [22]: inactive
Activity [23]: Non-Toxic
Activity [24]: Active
Activity [25]: Active
Activity [26]: Non-Toxic
Drug uptake [27]: ~ 25%
Activity [28]: Active
Activity [29]: Active
Drug uptake [30]: Active
Activity [31]: Active
